Data reported in patent US20190105340A1, “METHODS AND COMPOSITIONS FOR TARGETING VASCULAR MIMICRY” (New York Genome Center, Inc., priority 2017, published 2019).
“Also recorded” adds a separate entry of the source.

Columns and labels:
4T1-T^VM cells [1] = assay: in vitro VM tube assay on Matrigel; type: cell-based, mouse; conditions: 4T1-T^VM cells treated directly, plated on Matrigel
Excerpt: FIG. 1G are gel photographs showing the results of an in vitro Matrigel assay for VM. Only VM clones 4T1-E and 4T1-T can form tube structures when plated on Matrigel. All data from ref. 7.
Both SerpinE2 and SLPI are secreted proteins but whether their secretion is necessary for their effects on VM is unknown. To ascertain the importance of intra- vs extracellular localization of SerpinE2 and SLPI, we perform knockdown add-back experiments in which we suppress SerpinE2 or SLPI in 4T1-T^VM cells using shRNAs directed against the 3′ UTR followed by re-expression of HALO-tagged coding sequence constructs (FIG. 2) in which the signal peptide (a necessary signal for secretion) is either present or absent^8. These engineered cell lines then are tested for their ability to form VM tubes in vitro in the Matrigel assay and their ability to form VM channels and metastases in vivo by transplantation into the mammary fat-pad of Balb/C mice.
To ascertain whether regulation of VM underlies these effects of IRE1 on metastasis we turned to the in vitro VM tube assay. Inhibition of IRE1 with two independent small molecule inhibitors of its RNAse activity enhanced VM tubulogenesis while activation of IRE1 with Tunicamycin suppressed VM (FIGS. 4E and F). […]

4T1-T^VM cells [2] = assay: plating remaining treated cells in 2D (cell viability); type: cell-based, mouse; conditions: remaining treated cells plated in 2D
Excerpt: To ascertain whether regulation of VM underlies these effects of IRE1 on metastasis we turned to the in vitro VM tube assay. Inhibition of IRE1 with two independent small molecule inhibitors of its RNAse activity enhanced VM tubulogenesis while activation of IRE1 with Tunicamycin suppressed VM (FIGS. 4E and F).

4T1-T^VM cells [3] = assay: polyA+ RNA-Seq of treated cells with GO analysis and GSEA; type: cell-based, mouse
Excerpt: Y axis is log^2 fold change mRNA levels and X axis is the negative log^10 of the corrected p-value. Red points highlight significant changes with a p value below 0.05.
To assess the role of VM as a resistance mechanism in this clinical cohort, we examined whether this Bev resistance gene signature was altered by perturbations that influence VM (FIGS. 9A-9C). […] Thus, co-targeting of VM may enhance response to anti-angiogenic cancer therapies.

[4] = low-dose, IRE1 activation in vivo; cited from earlier work
[5] = cancer patients; cited from earlier work

Substance	VM tubulogenesis (tube formation) (4T1-T^VM cells [1])	effects on cell viability (4T1-T^VM cells [2])	GO analysis of genes significantly down-regulated by Tunicamycin/IRE1 activation and up-regulated by IRE1 inhibition (4T1-T^VM cells [3]; DESeq corrected p value<0.05)	GO analysis of genes significantly up-regulated by Tunicamycin/IRE1 activation and down-regulated by IRE1 inhibition (4T1-T^VM cells [3]; DESeq corrected p value<0.05)	Bev resistance gene signature (GSEA) (4T1-T^VM cells [3]; bevacizumab resistance genes of Mehta et al. in IRE1-regulated expression data)	VM gene signature (GSEA) (4T1-T^VM cells [3]; signature from VM clones vs all other clones)	toxicity in vivo [4]	clinical response [5]
Tunicamycin	suppressed VM; also recorded: profoundly suppresses VM tubulogenesis	ruled out any demonstrable effects on cell viability	enriched for regulators of vasculature development and secreted ECM/ECM-affiliated genes	enrichment of terms related to ER stress	globally down-regulated; also recorded: profoundly suppresses	profoundly suppresses	without apparent toxicity	–
Avastin®/bevacizumab: VEGF-blocking antibody (Genentech)	–	–	–	–	–	–	–	most patients showing transient responses followed by inevitable resistance
